According to patent US10703764B2, “Benzopiperazine compositions as BET bromodomain inhibitors” (FORMA Therapeutics, Inc., priority 2013, dated 2020):
Read-outs that look alike come from different tables or passages of the source.

Legend:
MV4-11 cells = assay: Oncology cell growth assay (3-day proliferation, CellTiter-Glo); type: cell-based; conditions: Homo sapiens, AML cell line MV4-11, 72 hours, compounds grouped by IC50 range, read-out: MV4-11 IC50 (inhibition of proliferation, gIC50)
In short: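 72 h, 37° C, 5% CO2; MV4-11, 3000 cells/well, RPMI 1640 + 10% FBS. Compound final 10, 3.3, 1.1, 0.37, 0.12, 0.041, 0.013, 0.0045 μM. Readout CellTiter-Glo luminescence; gIC50 by 4-parameter logistic fit, normalised to DMSO and no-cell background.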

BRD4 BD1 = target: T1, BRD4 BD1 (Homo sapiens, UniProt O60885); assay: AlphaScreen binding assay, BRD4 Bromodomain 1
T1 construct: made in house
In short: (§1)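 Compound dilution series were mixed with His-tagged BRD4 bromodomain and biotinylated tetra-acetylated H4 (1-21) peptide at pH 7.3 (BD1 and peptide at 50 nM, BD2 and peptide at 100 nM). Donor and acceptor beads were then added, and plates were equilibrated at least 1 h before reading. IC50 values were fitted with a four-parameter logistic model.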

BRD4 BD2 = target: T2, BRD4 BD2 (Homo sapiens, UniProt O60885); assay: AlphaScreen binding assay, BRD4 Bromodomain 2
T2 construct: made in house
In short: as §1

SMILES | IC50 (MV4-11 cells; MV4-11, 72 h) | IC50 (BRD4 BD1) | IC50 (BRD4 BD2) | IC50 (MV4-11 cells)
CC(=O)N1c2ccc(-c3ccc(S(=O)(=O)N(C)C)c(C)c3)cc2N(C(=O)OC(C)C)C[C@@H]1C [Example I-1299] | 100 to 500 nM | 100 to 1000 nM | 50 to 500 nM | –
CC(=O)N1c2ccc(-c3cnn(C4CCNCC4)c3)cc2N(C(=O)OC2CCCCC2)C[C@@H]1C [Example I-1303] | < 100 nM | 100 to 1000 nM | 50 to 500 nM | –
CC(=O)N1c2ccc(-c3cnn(C4CS(=O)(=O)C4)c3)cc2N(C(=O)C2CC2)C[C@@H]1C [Example I-1305] | > 500 nM | 1000 to 10000 nM | < 50 nM | –
CC(=O)N1c2ccc(-c3cnn(C4CS(=O)(=O)C4)c3)cc2N(C(=O)OC(C)C)C[C@@H]1C [Example I-1306] | > 500 nM | 100 to 1000 nM | 50 to 500 nM | –
CC(=O)N1c2ccc(-c3cnn(C4CS(=O)(=O)C4)c3)cc2N(C(=O)OC2CCCC2)C[C@@H]1C [Example I-1307] | 100 to 500 nM | 100 to 1000 nM | < 50 nM | –
CC(=O)N1c2ccc(-c3cnn(C4CS(=O)(=O)C4)c3)cc2N(C(=O)OC2CCCCC2)C[C@@H]1C [Example I-1308] | 100 to 500 nM | 100 to 1000 nM | < 50 nM | –
CC(=O)N1c2ccc(-c3cnn(C4CCCS(=O)(=O)C4)c3)cc2N(C(=O)OC(C)C)C[C@@H]1C (stereo partly drawn) [Example I-1311] | 100 to 500 nM | 100 to 1000 nM | 50 to 500 nM | –
CC(=O)N1c2ccc(-c3cnn(C4CCCS(=O)(=O)C4)c3)cc2N(C(=O)OC2CCCCC2)C[C@@H]1C (stereo partly drawn) [Example I-1312] | 100 to 500 nM | 100 to 1000 nM | < 50 nM | –
CC(=O)N1c2ccc(-c3ccc(NS(C)(=O)=O)cc3)cc2N(C(=O)Oc2ccccn2)C[C@@H]1C [Example I-1316] | 100 to 500 nM | 100 to 1000 nM | 50 to 500 nM | –
COC(=O)N1c2ccc(-c3cnn(C4CC4)c3)cc2N(C(=O)Oc2ccccn2)C[C@@H]1C [Example I-1323] | 100 to 500 nM | 100 to 1000 nM | < 50 nM | –
CC(=O)N1c2ccc(-c3ccc(N4CCCS4(=O)=O)cc3)cc2N(C(=O)Oc2ccccn2)C[C@@H]1C [Example I-1324] | 100 to 500 nM | 100 to 1000 nM | < 50 nM | –
CC(=O)N1c2ccc(-c3cnn(CCC#N)c3)cc2N(C(=O)Oc2ccccn2)C[C@@H]1C [Example I-1326] | 100 to 500 nM | 100 to 1000 nM | 50 to 500 nM | –
CC(=O)N1c2ccc(-c3ccc4c(c3)CCN4S(C)(=O)=O)cc2N(C(=O)Oc2ccccn2)C[C@@H]1C [Example I-1328] | 100 to 500 nM | 100 to 1000 nM | 50 to 500 nM | –
CC(=O)N1c2ccc(-c3cnn(C4CCNCC4)c3)cc2N(C(=O)Oc2ccccn2)C[C@@H]1C [Example I-1332] | – | 100 to 1000 nM | < 50 nM | < 100 nM

More lines, main results first:

IC50 (MV4-11 cells; MV4-11, 72 h) | IC50 (BRD4 BD1) | IC50 (BRD4 BD2) | SMILES | IC50 (MV4-11 cells)
> 500 nM | 1000 to 10000 nM | 50 to 500 nM | CC(=O)N1c2ccc(-c3ccc(S(N)(=O)=O)c(F)c3)cc2N(C(=O)C2CC2)C[C@@H]1C [Example I-1297] | –
> 500 nM | 1000 to 10000 nM | 50 to 500 nM | CC(=O)N1c2ccc(-c3ccc(S(N)(=O)=O)c(F)c3)cc2N(C(=O)OC(C)C)C[C@@H]1C [Example I-1298] | –
> 500 nM | 100 to 1000 nM | 50 to 500 nM | CC(=O)N1c2ccc(-c3ccc(S(=O)(=O)N(C)C)c(C)c3)cc2N(C(=O)C2CC2)C[C@@H]1C [Example I-1300] | –
< 100 nM | < 100 nM | < 50 nM | CC(=O)N1c2ccc(-c3cnn(C4CCOCC4)c3)cc2N(C(=O)OC2CCCCC2)C[C@@H]1C [Example I-1301] | –
100 to 500 nM | 100 to 1000 nM | < 50 nM | CC(=O)N1c2ccc(-c3cnn(C4CCOCC4)c3)cc2N(C(=O)C2CC2)C[C@@H]1C [Example I-1302] | –
< 100 nM | < 100 nM | < 50 nM | CC(=O)N1c2ccc(-c3cnn(C4CNC4)c3)cc2N(C(=O)OC2CCCCC2)C[C@@H]1C [Example I-1304] | –
> 500 nM | 100 to 1000 nM | 50 to 500 nM | CC(=O)N1c2ccc(-c3cnn(C4CCCS(=O)(=O)C4)c3)cc2N(C(=O)C2CC2)C[C@@H]1C (stereo partly drawn) [Example I-1310] | –
< 100 nM | 100 to 1000 nM | < 50 nM | CC(=O)N1c2ccc(-c3cnn(C4CC4)c3)cc2N(C(=O)Oc2ccccn2)C[C@@H]1C [Example I-1322] | –
100 to 500 nM | 100 to 1000 nM | 50 to 500 nM | CC(=O)N1c2ccc(-c3ccc(N(C)S(C)(=O)=O)cc3)cc2N(C(=O)Oc2ccccn2)C[C@@H]1C [Example I-1330] | –
100 to 500 nM | 100 to 1000 nM | 50 to 500 nM | CC(=O)N1c2ccc(-c3cnn(CCO)c3)cc2N(C(=O)Oc2ccccn2)C[C@@H]1C [Example I-1334] | –
